From article PMC2975748 (Journal of molecular and cellular cardiology, 2010) come the findings set out here.

The experiment concerns the target cardiac troponin C (cTnC), regulatory N-domain (cNTnC) (Homo sapiens, UniProt P19429+P63316). Put plainly: 1H, […]-HSQC NMR titration. It is filed as binding.

Molecules are shown by their SMILES.

Chain of cardiac troponin C (cTnC), regulatory N-domain (cNTnC) (P63316 1-89): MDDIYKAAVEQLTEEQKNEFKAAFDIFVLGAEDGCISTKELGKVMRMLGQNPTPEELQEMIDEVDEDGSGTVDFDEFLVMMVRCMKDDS
Chain of cardiac troponin C (cTnC), regulatory N-domain (cNTnC) (P19429 145-164): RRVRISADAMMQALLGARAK

In turn, `O=C(O)Cc1ccc(-c2ccc(F)cc2F)cc1` [dfbp, 2’ ,4’-difluoro(1,1’-biphenyl)-4-yl acetic acid] registered a Kd of 2820 ± 480 µM.
